# Measured values: patent US9617267B2, “Compounds and methods for kinase modulation, and indications therefor” (Plexxikon Inc., priority 2009, dated 2017)
# Read-outs that look alike come from different tables or passages of the source.
# Key:
# CYP2C9 = CYP2C9 (Homo sapiens (Human), UniProt P11712); assay: CYP enzyme inhibition, fluorescent substrate (MFC)
# In short: (§1)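 First, 100 mM DMSO stocks are diluted into acetonitrile, then twofold through co-factor mix for 10 points. Next, mixtures are preincubated 10 min at 37 °C.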
# CYP1A2 = CYP1A2 (Homo sapiens (Human), UniProt P05177); assay: CYP enzyme inhibition, fluorescent substrate (CEC)
# In short: (§2)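 IC50 derived from loss of fluorescent metabolite across a 10-point 1:1 dilution series. CYP2D6: 1.5 pmol enzyme, 1.5 μM AMMC, 30 min at 37 °C, 409/530 nm; CYP1A2: 0.5 pmol, 5 μM CEC, 15 min, 409/460 nm. Compounds pre-incubated 10 min in NADPH-regenerating mix.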
# [1] = Relative solubility by turbidity threshold concentration in aqueous buffers (pH 1.5, 4.5, 6.8, 7.4); assay type: physicochemical; settings: for turbidity threshold (L, M, H) 1.4: pH 1.4 [sic] (method: SGF pH 1.5); for turbidity threshold (L, M, H) 4.5: pH 4.5 (SIF); for turbidity threshold (L, M, H) 6.8: pH 6.8 (SIF); for turbidity threshold (L, M, H) 7.4: pH 7.4 (HEPES)
# In short: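 Solubility class (high >250 μM, moderate 31.3–250 μM, low <31.3 μM) comes from the concentration where absorbance reaches a 0.01 threshold, averaged across 490/535/650 nm. Samples were compound dilutions from DMSO stock, 1 μL into 99 μL buffer at pH 1.5, 4.5, 6.8 or 7.4.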
# B-Raf [2] = assay: B-Raf kinase activity biochemical assay (AlphaScreen, biotin-MEK1 phosphorylation); settings: for Biochemical activity ratio B/V600E: ratio of IC50 B-Raf / B-Raf V600E; for Biochemical activity ratio B/C: ratio of IC50 B-Raf / c-Raf-1
# In short: (§3)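 Compounds from a 0.1 mM DMSO stock were tested at 8 serially diluted points. Kinase reactions with 100 μM ATP (final) ran 45 min at room temperature, then were stopped with EDTA buffer containing anti-phospho-MEK1/2 antibody plus streptavidin donor and protein A acceptor beads.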
# B-Raf [3] = target: B-Raf (Homo sapiens (Human), UniProt P15056); assay: as above; settings: B-Raf
# In short: as §3
# CYP3A4(BQ) = CYP3A4(BQ) (Homo sapiens (Human), UniProt P08684); assay: CYP enzyme inhibition, fluorescent substrate BQ
# In short: as §1
# CYP2D6 = CYP2D6 (Homo sapiens (Human), UniProt P10635); assay: CYP enzyme inhibition, fluorescent substrate (AMMC); assay type: in vitro ADME; settings: read-out: Cyp IC50 2D6
# In short: as §2
# CYP2C19 = CYP2C19 (Homo sapiens (Human), UniProt P33261); assay: CYP enzyme inhibition, fluorescent substrate (CEC)
# In short: as §1
# B-Raf V600E = B-Raf V600E (Homo sapiens (Human), UniProt P15056, V600E); assay: B-Raf V600E kinase activity biochemical assay (AlphaScreen, biotin-MEK1 phosphorylation); settings: for IC50: B-Raf V600E; for Biochemical activity ratio V600E/C: ratio of IC50 B-Raf V600E / c-Raf-1
# In short: as §3
# c-Raf-1 = c-Raf-1 (Homo sapiens, UniProt P04049); assay: c-Raf-1 kinase activity biochemical assay (AlphaScreen, biotin-MEK1 phosphorylation)
# In short: as §3
# CYP3A4(BFC) = CYP3A4(BFC) (Homo sapiens (Human), UniProt P08684); assay: CYP enzyme inhibition, fluorescent substrate BFC
# In short: as §1
# [4] = read-out: Cyp IC50 2C9, CYP2C9, substrate MFC
# [5] = read-out: Cyp IC50 3A4(BQ), CYP3A4, substrate BQ
# [6] = read-out: Cyp IC50 2C19, CYP2C19, substrate CEC
# [7] = read-out: Cyp IC50 3A4(BFC), CYP3A4, substrate BFC
# CYP2C19, sequence (P33261 whole entry): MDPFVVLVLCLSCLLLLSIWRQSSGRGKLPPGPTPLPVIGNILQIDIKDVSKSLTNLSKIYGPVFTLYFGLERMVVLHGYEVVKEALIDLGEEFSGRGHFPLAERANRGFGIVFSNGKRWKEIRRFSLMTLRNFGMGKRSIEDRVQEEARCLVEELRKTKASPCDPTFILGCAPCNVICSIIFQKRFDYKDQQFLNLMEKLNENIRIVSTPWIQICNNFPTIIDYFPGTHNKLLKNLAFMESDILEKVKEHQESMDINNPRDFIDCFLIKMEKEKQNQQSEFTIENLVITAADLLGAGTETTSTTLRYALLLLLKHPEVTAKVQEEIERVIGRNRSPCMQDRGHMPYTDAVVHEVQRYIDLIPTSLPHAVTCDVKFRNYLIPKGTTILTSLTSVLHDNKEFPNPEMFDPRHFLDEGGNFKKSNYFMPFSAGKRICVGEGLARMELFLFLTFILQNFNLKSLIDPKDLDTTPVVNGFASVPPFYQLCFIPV
# CYP2C9, sequence (P11712 whole entry): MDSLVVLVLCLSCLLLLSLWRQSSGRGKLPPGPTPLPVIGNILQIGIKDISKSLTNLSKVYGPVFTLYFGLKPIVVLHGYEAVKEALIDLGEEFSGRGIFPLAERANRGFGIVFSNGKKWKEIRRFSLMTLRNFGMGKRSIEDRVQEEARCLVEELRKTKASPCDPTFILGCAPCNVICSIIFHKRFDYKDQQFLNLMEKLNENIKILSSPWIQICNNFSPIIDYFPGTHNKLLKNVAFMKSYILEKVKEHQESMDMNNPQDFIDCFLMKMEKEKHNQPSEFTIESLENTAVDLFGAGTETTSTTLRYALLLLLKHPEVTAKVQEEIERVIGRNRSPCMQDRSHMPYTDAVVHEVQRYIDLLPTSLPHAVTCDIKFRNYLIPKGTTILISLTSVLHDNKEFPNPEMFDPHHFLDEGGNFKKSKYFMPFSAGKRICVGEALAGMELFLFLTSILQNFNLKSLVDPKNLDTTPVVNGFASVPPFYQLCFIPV
# B-Raf (Homo sapiens (Human), UniProt P15056), sequence (P15056 whole entry): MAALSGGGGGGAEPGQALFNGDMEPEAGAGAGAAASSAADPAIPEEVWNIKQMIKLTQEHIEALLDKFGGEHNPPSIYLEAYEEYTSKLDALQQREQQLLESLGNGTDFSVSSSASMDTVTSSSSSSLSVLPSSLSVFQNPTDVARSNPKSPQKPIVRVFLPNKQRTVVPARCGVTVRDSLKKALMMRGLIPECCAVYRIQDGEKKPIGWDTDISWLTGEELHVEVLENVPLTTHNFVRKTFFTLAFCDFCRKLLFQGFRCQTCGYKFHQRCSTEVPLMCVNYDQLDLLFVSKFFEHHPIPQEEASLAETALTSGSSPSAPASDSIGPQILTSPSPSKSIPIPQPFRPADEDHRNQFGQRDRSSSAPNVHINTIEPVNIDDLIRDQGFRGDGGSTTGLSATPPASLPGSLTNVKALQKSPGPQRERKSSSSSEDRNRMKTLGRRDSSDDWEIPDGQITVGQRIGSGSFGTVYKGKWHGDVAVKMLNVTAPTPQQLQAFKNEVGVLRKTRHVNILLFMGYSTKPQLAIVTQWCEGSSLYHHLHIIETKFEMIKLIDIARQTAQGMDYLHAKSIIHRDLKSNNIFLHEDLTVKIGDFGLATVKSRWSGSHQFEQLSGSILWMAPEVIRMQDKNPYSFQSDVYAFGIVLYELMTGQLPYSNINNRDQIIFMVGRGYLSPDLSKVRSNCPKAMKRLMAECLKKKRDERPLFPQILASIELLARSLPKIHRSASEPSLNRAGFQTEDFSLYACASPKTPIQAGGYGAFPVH
# CYP1A2, sequence (P05177 whole entry): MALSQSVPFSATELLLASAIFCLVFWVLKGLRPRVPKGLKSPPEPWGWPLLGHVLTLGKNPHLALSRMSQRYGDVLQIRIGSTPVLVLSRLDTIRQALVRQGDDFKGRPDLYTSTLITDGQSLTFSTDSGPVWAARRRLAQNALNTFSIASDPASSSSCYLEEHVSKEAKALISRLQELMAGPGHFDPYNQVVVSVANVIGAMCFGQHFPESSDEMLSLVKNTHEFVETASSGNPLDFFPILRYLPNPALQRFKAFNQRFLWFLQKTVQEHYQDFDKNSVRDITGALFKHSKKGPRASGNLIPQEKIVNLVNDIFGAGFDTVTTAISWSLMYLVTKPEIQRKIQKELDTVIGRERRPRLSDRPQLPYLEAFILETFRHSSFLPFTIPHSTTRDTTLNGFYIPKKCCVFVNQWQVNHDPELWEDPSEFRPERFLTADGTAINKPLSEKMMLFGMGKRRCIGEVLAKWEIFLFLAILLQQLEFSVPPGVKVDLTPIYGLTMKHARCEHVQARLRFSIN
# CYP2D6, sequence (P10635 whole entry): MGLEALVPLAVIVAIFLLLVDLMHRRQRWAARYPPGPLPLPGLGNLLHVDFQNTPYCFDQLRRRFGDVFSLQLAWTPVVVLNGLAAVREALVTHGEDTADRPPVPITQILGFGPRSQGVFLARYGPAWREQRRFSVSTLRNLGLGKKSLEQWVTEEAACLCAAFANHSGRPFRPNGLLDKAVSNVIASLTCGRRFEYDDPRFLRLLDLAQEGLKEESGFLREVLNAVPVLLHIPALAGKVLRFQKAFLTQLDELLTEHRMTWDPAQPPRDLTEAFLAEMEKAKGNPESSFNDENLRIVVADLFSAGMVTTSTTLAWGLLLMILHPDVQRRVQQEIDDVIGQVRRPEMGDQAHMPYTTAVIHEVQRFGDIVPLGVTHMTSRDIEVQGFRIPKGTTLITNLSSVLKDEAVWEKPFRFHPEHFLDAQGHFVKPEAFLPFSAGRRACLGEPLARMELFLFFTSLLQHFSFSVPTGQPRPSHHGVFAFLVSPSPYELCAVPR
# c-Raf-1, sequence (P04049 whole entry, looked up): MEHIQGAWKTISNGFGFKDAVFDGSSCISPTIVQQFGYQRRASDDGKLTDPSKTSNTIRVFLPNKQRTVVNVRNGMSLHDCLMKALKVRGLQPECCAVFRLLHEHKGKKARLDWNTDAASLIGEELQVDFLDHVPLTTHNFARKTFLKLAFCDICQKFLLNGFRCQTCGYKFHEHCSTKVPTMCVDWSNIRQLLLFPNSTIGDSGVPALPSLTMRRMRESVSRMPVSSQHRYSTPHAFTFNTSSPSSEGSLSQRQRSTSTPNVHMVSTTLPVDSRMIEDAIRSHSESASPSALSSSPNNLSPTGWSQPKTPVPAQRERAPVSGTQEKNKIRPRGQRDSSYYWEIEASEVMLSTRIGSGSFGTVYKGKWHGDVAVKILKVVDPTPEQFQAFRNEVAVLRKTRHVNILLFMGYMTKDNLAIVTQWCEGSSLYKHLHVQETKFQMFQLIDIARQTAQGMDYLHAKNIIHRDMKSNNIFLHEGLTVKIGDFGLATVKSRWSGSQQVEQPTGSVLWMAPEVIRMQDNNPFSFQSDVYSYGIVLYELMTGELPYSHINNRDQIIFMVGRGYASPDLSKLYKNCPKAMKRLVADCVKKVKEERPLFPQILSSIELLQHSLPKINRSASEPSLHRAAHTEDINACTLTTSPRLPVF
# CYP3A4(BFC), sequence (P08684 whole entry): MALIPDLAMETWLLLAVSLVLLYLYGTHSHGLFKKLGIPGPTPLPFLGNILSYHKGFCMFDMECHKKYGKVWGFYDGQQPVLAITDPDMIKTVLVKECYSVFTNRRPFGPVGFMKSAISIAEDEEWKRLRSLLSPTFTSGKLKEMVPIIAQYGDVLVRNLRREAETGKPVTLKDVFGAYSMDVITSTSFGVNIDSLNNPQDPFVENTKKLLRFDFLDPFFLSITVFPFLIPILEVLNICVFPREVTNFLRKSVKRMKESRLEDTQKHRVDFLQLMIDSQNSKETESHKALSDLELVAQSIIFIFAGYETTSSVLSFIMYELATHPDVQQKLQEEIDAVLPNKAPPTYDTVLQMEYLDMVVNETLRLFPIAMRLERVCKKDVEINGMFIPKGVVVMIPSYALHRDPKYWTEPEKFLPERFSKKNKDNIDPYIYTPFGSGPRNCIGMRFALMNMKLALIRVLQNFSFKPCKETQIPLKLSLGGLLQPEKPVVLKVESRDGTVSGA
# CYP3A4(BQ), sequence (P08684 whole entry): as above
# B-Raf V600E, sequence (P15056 whole entry V600E): as the sequence (P15056 whole entry) above, with V600E counted along it
Compound,IC50 (CYP2C9; [4]),"IC50 (CYP1A2; human, 15 min)","turbidity threshold (L, M, H) 1.4 [1]","turbidity threshold (L, M, H) 4.5 [1]","turbidity threshold (L, M, H) 6.8 [1]","turbidity threshold (L, M, H) 7.4 [1]",Biochemical activity ratio B/V600E (B-Raf [2]),Biochemical activity ratio B/C (B-Raf [2]),IC50 (B-Raf [3]),IC50 (CYP3A4(BQ); [5]),IC50 (CYP2D6),IC50 (CYP2C19; [6]),IC50 (B-Raf V600E),Biochemical activity ratio V600E/C (B-Raf V600E),IC50 (c-Raf-1),IC50 (CYP3A4(BFC); [7]),IC50 (CYP3A4(BFC)),IC50 (CYP2C19),further results
"CN(C)c1ncnc2[nH]cc(C(=O)c3c(F)ccc(NS(=O)(=O)c4ccc(C(F)(F)F)cc4)c3F)c12 [P-1049, N-[3-(4-Dimethylamino-7H-pyrrolo[2,3-d]pyrimidine-5-carbonyl)-2,4-difluoro-phenyl]-4-trifluoromethyl-benzenesulfonamide]",> 10 µM,> 10 µM,M (moderate solubility if the threshold concentration is 31.3 μM to 250 μM),M (moderate solubility if the threshold concentration is 31.3 μM to 250 μM),M (moderate solubility if the threshold concentration is 31.3 μM to 250 μM),M (moderate solubility if the threshold concentration is 31.3 μM to 250 μM),0.1-10,>10,> 0.1 µM,> 10 µM,> 10 µM,> 10 µM,> 0.1 µM,>10,> 0.1 µM,> 10 µM,–,–,–
"CCCc1ccc(S(=O)(=O)Nc2ccc(F)c(C(=O)c3c[nH]c4ncnc(NC(C)C)c34)c2F)cc1 [P-1055, N-[2,4-Difluoro-3-(4-isopropylamino-7H-pyrrolo[2,3-d]pyrimidine-5-carbonyl)-phenyl]-4-propyl-benzenesulfonamide]",–,> 10 µM,L (low solubility if the threshold concentration is <31.3 μM),L (low solubility if the threshold concentration is <31.3 μM),L (low solubility if the threshold concentration is <31.3 μM),L (low solubility if the threshold concentration is <31.3 μM),0.1-10,0.1-10,< 0.1 µM,> 10 µM,> 10 µM,< 5 µM,> 0.1 µM,>10,< 0.1 µM,–,5 to 10 µM,–,IC50 (CYP2C9): 5 to 10 µM
"CCCS(=O)(=O)Nc1ccc(F)c(C(=O)c2c[nH]c3ncnc(OCC)c23)c1F [P-1002, Propane-1-sulfonic acid [3-(4-ethoxy-7H-pyrrolo[2,3-d]pyrimidine-5-carbonyl)-2,4-difluoro-phenyl]-amide]",–,–,H (high solubility if the threshold concentration is >250 μm),H (high solubility if the threshold concentration is >250 μm),H (high solubility if the threshold concentration is >250 μm),H (high solubility if the threshold concentration is >250 μm),0.1-10,>10,> 0.1 µM,–,> 10 µM,–,< 0.1 µM,0.1-10,< 0.1 µM,–,> 10 µM,> 10 µM,IC50 (CYP2C9): > 10 µM; IC50 (CYP1A2): > 10 µM; IC50 (CYP3A4(BQ)): > 10 µM
"CCCc1ccc(S(=O)(=O)Nc2ccc(F)c(C(=O)c3c[nH]c4ncnc(NC5CCOCC5)c34)c2F)cc1 [P-1046, N-{2,4-Difluoro-3-[4-(tetrahydro-pyran-4-ylamino)-7H-pyrrolo[2,3-d]pyrimidine-5-carbonyl]-phenyl}-4-propyl-benzenesulfonamide]",> 10 µM,> 10 µM,M (moderate solubility if the threshold concentration is 31.3 μM to 250 μM),L (low solubility if the threshold concentration is <31.3 μM),L (low solubility if the threshold concentration is <31.3 μM),L (low solubility if the threshold concentration is <31.3 μM),0.1-10,>10,< 0.1 µM,> 10 µM,> 10 µM,> 10 µM,> 0.1 µM,>10,< 0.1 µM,> 10 µM,–,–,–
"O=C(c1c(F)ccc(NS(=O)(=O)c2ccc(C(F)(F)F)cc2)c1F)c1c[nH]c2ncnc(N3CCCC3)c12 [P-1061, N-[2,4-Difluoro-3-(4-pyrrolidin-1-yl-7H-pyrrolo[2,3-d]pyrimidine-5-carbonyl)-phenyl]-4-trifluoromethyl-benzenesulfonamide]",> 10 µM,> 10 µM,H (high solubility if the threshold concentration is >250 μm),M (moderate solubility if the threshold concentration is 31.3 μM to 250 μM),M (moderate solubility if the threshold concentration is 31.3 μM to 250 μM),H (high solubility if the threshold concentration is >250 μm),0.1-10,0.1-10,> 0.1 µM,> 10 µM,> 10 µM,> 10 µM,> 0.1 µM,>10,> 0.1 µM,> 10 µM,–,–,–
"CCc1ccc(S(=O)(=O)Nc2ccc(F)c(C(=O)c3c[nH]c4ncnc(NC(C)C)c34)c2F)cc1 [P-1042, N-[2,4-Difluoro-3-(4-isopropylamino-7H-pyrrolo[2,3-d]pyrimidine-5-carbonyl)-phenyl]-4-ethyl-benzenesulfonamide]",> 10 µM,> 10 µM,M (moderate solubility if the threshold concentration is 31.3 μM to 250 μM),L (low solubility if the threshold concentration is <31.3 μM),L (low solubility if the threshold concentration is <31.3 μM),L (low solubility if the threshold concentration is <31.3 μM),0.1-10,0.1-10,< 0.1 µM,> 10 µM,> 10 µM,–,< 0.1 µM,>10,< 0.1 µM,> 10 µM,–,5 to 10 µM,–
"CN(C)CCNc1ncnc2[nH]cc(C(=O)c3c(F)ccc(NS(=O)(=O)c4ccc(C(F)(F)F)cc4)c3F)c12 [P-1059, N-{3-[4-(2-Dimethylamino-ethylamino)-7H-pyrrolo[2,3-d]pyrimidine-5-carbonyl]-2,4-difluoro-phenyl}-4-trifluoromethyl-benzenesulfonamide]",> 10 µM,> 10 µM,H (high solubility if the threshold concentration is >250 μm),M (moderate solubility if the threshold concentration is 31.3 μM to 250 μM),M (moderate solubility if the threshold concentration is 31.3 μM to 250 μM),M (moderate solubility if the threshold concentration is 31.3 μM to 250 μM),0.1-10,0.1-10,> 0.1 µM,> 10 µM,> 10 µM,> 10 µM,> 0.1 µM,>10,< 0.1 µM,> 10 µM,–,–,–
"CCCc1ccc(S(=O)(=O)Nc2ccc(F)c(C(=O)c3c[nH]c4ncnc(OC)c34)c2F)cc1 [P-1005, N-[2,4-Difluoro-3-(4-methoxy-7H-pyrrolo[2,3-d]pyrimidine-5-carbonyl)-phenyl]-4-propyl-benzenesulfonamide]",> 10 µM,> 10 µM,H (high solubility if the threshold concentration is >250 μm),L (low solubility if the threshold concentration is <31.3 μM),L (low solubility if the threshold concentration is <31.3 μM),L (low solubility if the threshold concentration is <31.3 μM),0.1-10,0.1-10,> 0.1 µM,> 10 µM,> 10 µM,–,> 0.1 µM,>10,< 0.1 µM,–,5 to 10 µM,5 to 10 µM,–
